Measurements from PubChem BioAssay (NCI).
Several values for one entry are separate records, joined by “and”; a condition that tells them apart may be missing. Equal entries are not always repeated.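 Compound exposure: 48 hours, 5 concentrations, 96-well plates. GI50 = concentration required for 50% inhibition of growth. The concentration for full growth arrest is given as TGI.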

What was measured:
Assay in all cases: NCI anticancer screen, dose series, 48 h
NCI-H522 lung = test system: NCI-H522 lung
T-47D breast = test system: T-47D breast
HL-60(TB) leukemia = test system: HL-60(TB) leukemia
IGROV1 ovarian = test system: IGROV1 ovarian
HS 578T breast = test system: HS 578T breast
SK-MEL-28 melanoma = test system: SK-MEL-28 melanoma
UO-31 renal = test system: UO-31 renal
NCI/ADR-RES ovarian = test system: NCI/ADR-RES ovarian

SMILES | GI50 (NCI-H522 lung) [µM] | TGI (NCI-H522 lung) | GI50 (T-47D breast) [µM] | TGI (T-47D breast) | GI50 (HL-60(TB) leukemia) [µM] | TGI (HL-60(TB) leukemia) [µM] | GI50 (IGROV1 ovarian) [µM] | TGI (IGROV1 ovarian) | GI50 (HS 578T breast) [µM] | TGI (HS 578T breast) | GI50 (SK-MEL-28 melanoma) [µM] | TGI (SK-MEL-28 melanoma) | GI50 (UO-31 renal) [µM] | TGI (UO-31 renal) | GI50 (NCI/ADR-RES ovarian) [µM] | TGI (NCI/ADR-RES ovarian)
Cc1ccn2c3c(c(C(=O)O)c2c1)C(=O)c1ccccc1C3=O | > 45.7 | > 100 µM | > 100 | > 100 µM | > 100 | > 100 | > 42.1 | > 100 µM | 3.71 | 29.8 µM | 4.44 | > 100 µM | 25.8 | > 100 µM | 49.8 | > 100 µM
Cc1cc2nc3c4cc(Cl)ccc4n(CCN(C)C)c3nc2cc1C | 1.41 | 3.27 µM | 2.98 | 16.6 µM | 1.93 | 4.33 | 1.35 | 3.86 µM | 2.35 | 6.99 µM | 2 | 3.53 µM | 0.389 | 3.35 µM | 1.07 | 5.04 µM
CC(C)(C)OC(=O)n1cc(CNC(=S)Nc2ccccc2)c2ccccc21 | > 100 | > 100 µM | – | – | 11.6 | 55.3 | 27.6 | > 100 µM | 13.7 | 42.2 µM | 27.4 | 95.3 µM | 26.5 | > 100 µM | 10.8 | 22.7 µM
Clc1ccccc1C(c1ccccc1)(c1ccccc1)n1ccnc1 | 2.66 | 8.89 µM and 18.9 µM | 2.3 | 14.5 µM and 30.4 µM | 1.72 | 5.21 | 3.35 | 18.7 µM and 22.9 µM | 3.45 | 19.7 µM and 35.2 µM | 3.86 | 15.6 µM and 36.1 µM | 1.45 | 9 µM and 19.8 µM | 2.88 | 13.3 µM and 28.2 µM
C=CC(=O)N[C@H]1C=C(C)c2c(-c3cnc4ccccc4c3)c3c(N)ncnc3n2C1 | 0.699 | 20.4 µM | 2.22 | > 100 µM | 29.8 | > 80.4 | 0.568 | 12.2 µM | 8.14 | 46.6 µM | 19.3 | 68.6 µM | 0.61 | 11.5 µM | 21.3 | > 87.9 µM
Oc1ccccc1/C=N/Nc1ccc2ccccc2n1 | 2.36 | 9.41 µM | 3.83 | > 100 µM | 2.44 | > 100 | 3.18 | 12.3 µM | 6.87 | 76.3 µM | 11.8 | > 100 µM | 1.17 | 35.6 µM | 1.95 | > 100 µM
COc1c(C2CC(=O)Nc3c2cnn3Cc2ccco2)cc2c(c1OC)OCO2 (stereo not drawn) | 0.349 | 3.24 µM | 0.45 | > 100 µM | 0.301 | – | 1.73 | > 100 µM | 0.49 | > 100 µM | – | > 100 µM | 2.65 | > 100 µM | 1.08 | > 100 µM
C#Cc1cnc(=O)n(C2CC(O)C(CO)O2)c1 (stereo not drawn) | > 100 | > 100 µM | > 100 | > 100 µM | > 100 | > 100 | > 100 | > 100 µM | > 100 | > 100 µM | > 100 | > 100 µM | > 100 | > 100 µM | > 100 | > 100 µM
COc1ccc(C(=S)N2CCN(c3cccc(Cl)c3)CC2)cc1 | 15.3 | > 100 µM | 65.8 | > 100 µM | > 100 | > 100 | 58.8 | > 100 µM | > 100 | > 100 µM | > 100 | > 100 µM | 43.3 | > 100 µM | 97 | > 100 µM
O=C(c1cccs1)c1c(C(F)(F)F)n([O-])c2ccccc2[n+]1=O | 0.125 | 1.54 µM | 4.38 | 11.2 µM | 0.25 | 0.966 | 0.0603 | 2.29 µM | 1.03 | 2.91 µM | 5.59 | 14.5 µM | 0.0775 | 6.08 µM | 0.677 | 1.94 µM
Cc1nn(-c2ccc(F)cc2)c2ncnc(Nc3ccc(NC(=O)Nc4ccc(Cl)c(C(F)(F)F)c4)cc3)c12 | 1.74 | 4.42 µM | 1.73 | 5.27 µM | 2.73 | 8.1 | 2.66 | 11.2 µM | 2.66 | 9.47 µM | 2.18 | 5.68 µM | 1.65 | 4.17 µM | 2.43 | 10.9 µM
COc1ccc(-c2nn(-c3cccc(Cl)c3)cc2C2CC(c3ccccc3)=NN2C(C)=O)cc1 (stereo not drawn) | 32.6 | > 100 µM | 8.53 | > 100 µM | > 100 | > 100 | 13.7 | > 100 µM | 2.81 | 20.1 µM | 6.16 | > 100 µM | 6.36 | > 100 µM | 6.96 | > 100 µM
Fc1cccc(COc2ccc(Nc3ncncc3C#Cc3ccccc3)cc2Cl)c1 | > 22.4 | > 25 µM | 20 | > 25 µM | > 25 | > 25 | > 24 | > 25 µM | > 25 | > 25 µM | > 25 | > 25 µM | 21.6 | > 25 µM | > 25 | > 25 µM
CSc1nc(SC)c2c(CN=[N+]=[N-])c(Br)n(Cc3ccccc3)c2n1 | – | > 100 µM | – | > 100 µM | – | > 100 | – | > 100 µM | – | > 100 µM | – | > 100 µM | – | > 100 µM | – | > 100 µM
COC(=O)C1OC(O[C@H]2CCC3(C)C(CCC4(C)C3CC=C3C5CC(C)(C)CCC5(C(=O)O)CC[C@]34C)C2(C)C)C(O)C(OC2OC(CO)C(O)C(O)C2O)C1O (stereo partly drawn) | 10.5 | 29 µM | 8.16 | 17.2 µM | 6.92 | 18.2 | 20.1 | > 33.3 µM | 8.77 | 21.6 µM | 10.2 | 24.1 µM | > 33.3 | > 33.3 µM | 7.24 | 13.5 µM
